Assay results reported in patent US11992497B2 (priority 2021, dated 2024).

Tests used:
[1] = PK study of CBG, Compound 1 and Compound 2, PO or IP; type: in vivo, male Sprague Dawley rats; settings: CBG 30 mg/kg PO and IP; Compound 1 31.5 mg/kg PO; Compound 2 32.7 mg/kg PO
Procedure: This study evaluated the pharmacokinetics of (E)-2-(3,7-dimethylocta-2,6-dien-1-yl)-3-methoxy-5-pentylphenol (1) and (E)-2-(3,7-dimethylocta-2,6-dien-1-yl)-1,3-dimethoxy-5-pentylbenzene (2) following oral (PO) or intraperitoneal (IP) administration to male Sprague Dawley rats.
For the oral formulation the test article was added to the appropriate amount of Maisine and stirred until uniform. Next Labrasol was added to the formulation and allowed to stir until uniform. Finally, water will be slowly added to the stirring formulation to achieve the final volume.
For the IP formulation the test article was added to the appropriate amount of ethanol and stirred until uniform. Next, the appropriate amount of tween-20 was added to the stirred formulation. Finally, the appropriate amount of saline was slowly added to the stirred formulation to achieve the final volume.
Animals were fasted the evening prior to dosing with food returned at 4 h postdose, and the animals weighed on the morning of dose administration.
IP doses were administered via injection to the intraperitoneal region. PO doses were delivered into the stomach via syringe and gavage tube.
Blood was collected from via direct jugular stick or from the tail vein. Blood samples were kept on ice until being centrifuged at 3200 RPM for 10 minutes at ˜5° C. within 1 h of collection. Plasma was split into 2 cryovials in approximately equal volumes (0.05 mLs) and stored at −20° C.±5° C. until shipment.

UGT1A3 = target: T1, UGT1A3 (Homo sapiens, UniProt P35503); experiment: UGT reaction phenotyping, recombinant Supersomes; settings: recombinant enzyme, pH 7.4
T1 sequence (P35503 29-534): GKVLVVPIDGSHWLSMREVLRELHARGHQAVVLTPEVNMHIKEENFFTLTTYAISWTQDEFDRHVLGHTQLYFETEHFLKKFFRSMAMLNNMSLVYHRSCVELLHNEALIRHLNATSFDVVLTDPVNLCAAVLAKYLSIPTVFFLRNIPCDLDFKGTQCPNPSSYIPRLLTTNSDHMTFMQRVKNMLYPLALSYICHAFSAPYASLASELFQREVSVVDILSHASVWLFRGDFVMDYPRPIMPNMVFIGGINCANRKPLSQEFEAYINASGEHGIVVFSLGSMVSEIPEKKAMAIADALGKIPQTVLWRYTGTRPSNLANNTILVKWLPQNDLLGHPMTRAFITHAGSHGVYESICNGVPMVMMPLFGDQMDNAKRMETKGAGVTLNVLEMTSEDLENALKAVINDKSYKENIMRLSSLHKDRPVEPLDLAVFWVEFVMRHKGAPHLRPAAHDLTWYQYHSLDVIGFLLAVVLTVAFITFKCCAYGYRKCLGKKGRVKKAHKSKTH
Procedure: (§1) Experimental Summary: UGT Reaction Phenotyping (7 Isoforms).
(§2) Experimental Procedure: cDNA expressed human UGT enzyme preparations (Supersomes) supplied by BD Biosciences were obtained and stored at −80° C. prior to use. The specific isoforms were chosen by the performing laboratory based on published guidelines. They are considered the clinically relevant of the UGT isoforms (E. Kasteel et al. Human variability in isoform-specific UDP-glucuronosyltransferases: markers of acute and chronic exposure, polymorphisms and uncertainty factors. Arch Toxicol. 2020; 94(8): 2637-2661)
(§3) Supersomes in 0.1 M Tris buffer pH 7.4, alamethicin (44.6 μg/mL) and test compound (final concentration of 5 μM; final DMSO concentration ≤0.1%) were pre-incubated at 37° C. prior to the addition of UDGPA (final concentration 2 mM) to initiate the reaction. Incubations were also performed using control Supersomes (no UGT enzymes present) to reveal any non-enzymatic degradation. Compounds known to be metabolized specifically by each UGT isoform were used as control compounds (7-hydroxy-4-trifluoromethylcoumarin, all but UGT1A4, or trifluoperazine for UGT1A4).
(§4) CBG or Compound 1 were incubated in duplicate for 0, 10, 20, 40 and 60 min with each isoform. The reactions were stopped by the addition of methanol containing an analytical internal standard at the time points specified in the table above. Stopped reactions were kept on ice for at least ten minutes and the samples were centrifuged to remove precipitated protein. Supernatants were analyzed by LC-MS/MS methodology developed by the performing laboratory to quantitate the parent remaining.
(§5) The change in CBG concentration were used to calculate the Half life (t1/2 in min) and the intrinsic clearance ([…]) as shown in the following table (S. C, Khojasteh et.al., Drug Metabolism and Pharmacokinetics Quick Guide, Springer, NY, 2011), Intrinsic Clearance (CIint) is a measure of the ability of hepatocytes to eliminate drug irrespective other factors such as blood flow or protein binding. The calculations were the same as those used in Example 3A.

UGT2B15 = target: T2, UGT2B15 (Homo sapiens, UniProt P54855); experiment: UGT reaction phenotyping, recombinant Supersomes; settings: recombinant enzyme, pH 7.4
T2 sequence (P54855 24-530): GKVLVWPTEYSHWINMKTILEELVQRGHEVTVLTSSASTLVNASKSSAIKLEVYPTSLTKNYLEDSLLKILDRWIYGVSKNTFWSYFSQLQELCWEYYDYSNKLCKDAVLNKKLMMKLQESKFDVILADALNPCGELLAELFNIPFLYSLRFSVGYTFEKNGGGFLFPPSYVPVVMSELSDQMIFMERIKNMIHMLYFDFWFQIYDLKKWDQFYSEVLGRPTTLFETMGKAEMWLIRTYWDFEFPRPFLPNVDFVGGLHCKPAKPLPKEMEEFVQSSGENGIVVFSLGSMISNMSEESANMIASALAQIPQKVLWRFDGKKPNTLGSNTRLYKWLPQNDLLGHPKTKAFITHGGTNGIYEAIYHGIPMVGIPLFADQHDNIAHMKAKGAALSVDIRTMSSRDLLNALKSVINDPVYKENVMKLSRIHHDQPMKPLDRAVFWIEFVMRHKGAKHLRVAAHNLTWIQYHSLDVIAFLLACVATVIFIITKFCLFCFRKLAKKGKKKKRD
Procedure: as §1, §2, §3, §4, §5

UGT1A6 = target: T3, UGT1A6 (Homo sapiens, UniProt P19224); experiment: UGT reaction phenotyping, recombinant Supersomes; settings: recombinant enzyme, pH 7.4
T3 sequence (P19224 27-532): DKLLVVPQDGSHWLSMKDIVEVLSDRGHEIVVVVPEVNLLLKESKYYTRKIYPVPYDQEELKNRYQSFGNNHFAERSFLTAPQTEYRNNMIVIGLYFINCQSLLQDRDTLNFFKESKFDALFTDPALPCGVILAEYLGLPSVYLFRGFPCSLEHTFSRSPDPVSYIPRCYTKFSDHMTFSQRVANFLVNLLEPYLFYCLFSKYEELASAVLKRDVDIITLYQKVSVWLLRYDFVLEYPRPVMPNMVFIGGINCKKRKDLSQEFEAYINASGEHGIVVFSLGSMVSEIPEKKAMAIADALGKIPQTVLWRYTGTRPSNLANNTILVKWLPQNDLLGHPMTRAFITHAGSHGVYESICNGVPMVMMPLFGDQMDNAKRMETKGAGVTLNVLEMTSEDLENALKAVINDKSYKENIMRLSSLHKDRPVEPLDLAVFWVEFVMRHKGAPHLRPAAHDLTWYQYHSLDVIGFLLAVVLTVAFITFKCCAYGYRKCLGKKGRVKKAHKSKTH
Procedure: as §1, §2, §3, §4, §5

**Q.** With `CCCCCc1cc(OC)c(C/C=C(\C)CCC=C(C)C)c(OC)c1` [Compound 2, (E)-2-(3,7-dimethylocta-2,6-dien-1-yl)-1,3-dimethoxy-5-pentylbenzene] as the compound, how does the “glucuronidation / glucuronide formation in plasma (in words)” value [1] read?
**A.** completely blocked glucuronide formation

**Q.** What does the source list for `CCCCCc1cc(O)c(C/C=C(\C)CCC=C(C)C)c(O)c1` [CBG, cannabigerol]?
**A.** half-life at 1 µM (UGT1A3): 44.1 min; microsomal CLint at 1 µM (UGT1A3): 31.4 µL/min/mg; half-life at 1 µM (UGT2B15): 47.6 min; microsomal CLint at 1 µM (UGT2B15): 29.1 µL/min/mg; half-life at 1 µM (UGT1A6): 95 min; microsomal CLint at 1 µM (UGT1A6): 14.6 µL/min/mg; glucuronidation / glucuronide formation in plasma (in words) [1]: converted by glucuronidation to CBG-glucoronide

**Q.** With `O=c1cc(C(F)(F)F)c2ccc(O)cc2o1` [7-OH4trifluoromethylcoumarin, 7-hydroxy-4-trifluoromethylcoumarin] as the compound, how does the half-life at 1 µM (UGT1A3) read?
**A.** 51.8 min

**Q.** And the microsomal CLint at 1 µM (UGT1A3)?
**A.** 26.8 µL/min/mg

**Q.** What about the half-life at 1 µM (UGT2B15) of the same compound?
**A.** 24.9 min

**Q.** What about the microsomal CLint at 1 µM (UGT2B15) of the same compound?
**A.** 55.8 µL/min/mg

**Q.** And the half-life at 1 µM (UGT1A6)?
**A.** 6.41 min

**Q.** And the microsomal CLint at 1 µM (UGT1A6)?
**A.** 216 µL/min/mg

**Q.** For `CCCCCc1cc(O)c(C/C=C(\C)CCC=C(C)C)c(OC)c1` [Compound 1, (E)-2-(3,7-dimethylocta-2,6-dien-1-yl)-3-methoxy-5-pentylphenol], which half-life at 1 µM (UGT1A3) is on record?
**A.** 108 min

**Q.** And the microsomal CLint at 1 µM (UGT1A3)?
**A.** 12.8 µL/min/mg

**Q.** And the half-life at 1 µM (UGT2B15)?
**A.** 57.2 min

**Q.** What about the microsomal CLint at 1 µM (UGT2B15) of the same compound?
**A.** 24.2 µL/min/mg

**Q.** What about the half-life at 1 µM (UGT1A6) of the same compound?
**A.** > 240 min

**Q.** What about the microsomal CLint at 1 µM (UGT1A6) of the same compound?
**A.** < 2.89 µL/min/mg

**Q.** And the “glucuronidation / glucuronide formation in plasma (in words)” value [1]?
**A.** significantly reduced levels of glucuronidation compared to CBG
